“Also recorded” adds a separate entry of the source. {NH2} = C-terminal amide of the PNA; {F1} = fluorescein label
What was measured:
Type in all cases: cell-based
HeLa pLuc 705 cells = assay: Endocytic pathway assays; conditions: dTtaPS-mediated uptake of PNA oligomer 10, chlorpromazine 30 μM, nystatin 50 μM, EIPA 1 mM
Procedure: Endocytic pathway assays: HeLa pLuc 705 cells were seeded in a 96-well plate and grown in 10% FBS-DMEM as described above. The cell culture was then pre-incubated for 30 min at 37° C. in the presence of chlorpromazine, nystatin or 5-(N-ethyl-N-isopropyl)amiloride (EIPA), the final concentration of which was 30 μM, 50 μM or 1 mM, respectively. A 2× solution of PNA oligomer 10:dTtaPS complex was added to the cells to provide an oligomer and dTtaPS final concentration of 1.0 μM and 2.0 μM, respectively. The cells were then incubated for an additional 30 min at 37° C., whereupon luciferase activity was measured as described above in the Luciferase assay protocol. Luminescence measurements were normalized to the amounts of protein present in the test samples and reported as percent luminescence remaining relative to that of the experiment performed in the absence of endocytic pathway inhibitors.

[1] = tested on: HEK 293, HeLa, HeLa pLuc705, MCF7 and SK—N—SH live cells; assay: Flow cytometry (FACS) analysis of cellular uptake of fluorescently-labeled PNA or PMO oligomers in live cells; conditions: for PS-dT8[3+] (dTtaPS)-mediated delivery of fluoresceinated PMO oligomers: PMO oligomer 1 μM, PS-dT8[3+] 2 μM, all cell lines, FIG. 17; for PS-dT8[3+] (dTtaPS)-mediated cellular internalization of fluoresceinated PNA oligomers: in the presence of PS-dT8[3+], oligomer 1 μM, all cell lines under study, FIG. 11
Procedure: (§1) Complex formation between PNA or PMO oligomers and dTtaPS or dAtaPS: Appropriate amounts of PNA or PMO oligomers were diluted in serum-free OptiMEM™ (20 μl). dTtaPS or dAtaPS was added to the oligomer solution to achieve a final concentration that is twice that of the oligomer. After 30 min incubation at 37° C., the PNA or PMO oligomer: dTtaPS or dAtaPS complexes were stored at 4° C. for 15 minutes or until used. Stock solutions (2×) of the complexes were made by adding OptiMEM™ to appropriate volumes.
Flow cytometry analysis of cellular uptake in live cells: The internalization of fluorescently-labeled PNA or PMO sequences (Table 1) in HEK 293, HeLa, MCF7 and SK—N—SH cells was assessed by flow cytometry. Cells were seeded in a 96-well plate (10^4 cells/well) and allowed to grow at 37° C. for 24 h in 10% FBS-MEM. The culture medium of each well was then replaced with fresh medium (100 μl) containing any of the fluorescently-labeled PNA or PMO sequences, the final concentration of which was 1 μM. After an incubation of 18 h at 37° C., the medium was removed from each well by suction and 0.25% Trypsin (50 μl) was added. Upon complete cell detachment, a solution (100 μl) of ice-cold 2% FBS in phosphate-buffered saline (PBS, pH 7.4) was added to each well. The cells were collected into tubes, to which was added 0.4% Trypan blue (50 μl) and 200 µM monensin (20 μl), and analyzed by fluorescence-activated cell sorting (FACS) using a BD FACScan™ flow cytometer. A total of 5000 events were counted and the results were reported as a percentage of the cells that have internalized the fluorescently-labeled oligomers.

HeLa pLuc705 cells = assay: Luciferase splice correction assay; conditions: for luciferase activity (splice correction) upon PS-dT8[3+] (dTtaPS)-assisted delivery of PNA oligomers: FIG. 12, 13, 15; for luciferase activity / internalization upon PS-dA8[3+] (dAtaPS)-mediated delivery of PNA oligomers: PS-dA8[3+] 2.0 μM, compared with PS-dT8[3+]:10 complex, FIG. 16
Procedure: The efficiency of PS-dT8[3+] in the cellular uptake of polyA-tailed PNA oligomers was assessed through the luciferase splice correction assay in which the mutated intron 2 of the human β-globin gene has been inserted within the coding sequence of a luciferase reporter gene (pLuc705). The activation of a cryptic splice site in this intron leads to a defective luciferase enzyme. In the presence of a PNA oligomer complementary to the aberrant splice site, correct splicing is restored and results in an active luciferase. A concentration-dependence of splice correction activity by PS-dT8[3+]-mediated internalization of the PNA oligomer 10 in HeLa pLuc705 cells is shown in FIG. 12.
as §1
Luciferase assay protocol: HeLa pLuc 705 cells were seeded in a 96-well plate (2×10^4 cells/well) and allowed to grow at 37° C. for 18 h in 10% FBS-DMEM. The culture medium of each well was then replaced with either fresh serum-free or 20% serum-containing OptiMEM™ (50 μl) for experiments intended to be performed in serum-free or in 10% serum-containing media. A 2× solution of PNA or PMO oligomer:dTtaPS or dAtaPS complexes (50 μl) was added to the cells in order to achieve pre-determined complex concentrations, as indicated in the Figures. After a 4-hour incubation at 37° C., 20% FBS in OptiMEM™ (100 μl was added to serum-free experiments and cells were incubated for an additional 18 h at 37° C. The media was then removed by suction and the cells were mixed with a cell lysis reagent (50 μl) and agitated at ambient temperature for 10 minutes. The cell lysate (30 μl) was placed in a white 96-well plate and Bright-Glo™ reagent (20 μl) was added. Luciferase activity was measured using a microplate reader. For each well, luminescence was integrated over a period of 1 sec and recorded as relative light units (RLU). Luminescence measurements were normalized to the amount of protein present in the test sample.
Appropriate amounts of PNA/PMO oligomers were diluted in OptiMEM™ (20 μL) to achieve the concentration of 1 μM or as indicated in the Figures. PS-dT8[3+] or PS-dAs[3+] was added to the above oligomer solutions. After a 30 min incubation at 37° C., the PNA/PMO oligomer:PS-dT8[3+] or PS-dA8[3+] complexes were removed and kept at 4° C. for 15 minutes or until used. Stock solutions of the complexes were made by adding OptiMEM™ to appropriate volumes.
Luciferase Assay: Prior to performing experiments, HeLa pLuc 705 cells were seeded in a 96-well plate (2×10^4 cells/well) and allowed to grow at 37° C. for 18 h in 10% FBS DMEM. The culture medium of each well was then replaced with either fresh 50 μL serum free or 20% serum-containing OptiMEM™ for experiments intended to be performed in serum free or in 10% serum-containing media. A 2× solution of the PNA/PMO oligomer:PS-dT8[3+] or PS-dAs[3+] complexes (50 μL) was added to the cells in order to achieve a pre-determined concentration as indicated in the figures. After a 4-hour incubation at 37° C., 20% FBS in OptiMEM (100 μL) was added to serum free experiments and cells were incubated for an additional 18 h at 37° C. The media was then removed by suction and the cells were mixed with a cell lysis reagent (50 μL) and agitated at ambient temperature over a period of 10 minutes. The cell lysate (30 μL) was placed in white 96-well plate and Bright-Glow™ reagent (20 μL) was added. Luciferase activity was measured using a microplate reader. […]

## CCN(c1nc(N)c(C(=O)N=C(N)N)nc1Cl)C(C)C [EIPA, 5-(N-ethyl-N-isopropyl)amiloride]
HeLa pLuc 705 cells
  inhibition of luciferase production by endocytic pathway inhibitor: ~95%

## C[C@@H]1[C@H](O)[C@@H](C)/C=C/C=C/CC/C=C/C=C/C=C/C=C/C(O[C@H]2O[C@H](C)[C@@H](O)[C@H](N)[C@@H]2O)CC2O[C@](O)(CC(O)C(O)CCC(O)CC(O)CC(O)CC(=O)O[C@H]1C)CC(O)C2C(=O)O (stereo partly shown) [Nystatin, nystatin]
HeLa pLuc 705 cells
  inhibition of luciferase production by endocytic pathway inhibitor: did not inhibit

## CN(C)CCCN1c2ccccc2Sc2ccc(Cl)cc21 [chlorpromazine]
HeLa pLuc 705 cells; Homo sapiens, HeLa, read-out: inhibition of luciferase production by endocytic pathway inhibitor
  inhibition at 30 µM: ~40%

## PMO oligomer 19: commercial PMO, GTGGCCGTTTACGTCGCC-AAAAAA-F1, SEQ ID NO. 13 (GTGGCCGTTTACGTCGCCAAAAAA; PMO, F1 label, chemistry not fully specified)
[1]; listed as 19
  PS-dT8[3+] (dTtaPS)-mediated delivery of fluoresceinated PMO oligomers: confirmed the dTtaPS-assisted delivery

## PMO oligomer 20: commercial PMO, CCTCTTACCTCAGTTACA-F1, SEQ ID NO. 14 (all phosphorodiamidate morpholino (PMO), 3' {F1})
[1]
  PS-dT8[3+] (dTtaPS)-mediated delivery of fluoresceinated PMO oligomers: reduced to that of the medium

## PMO oligomer 24: commercial PMO, CCTCTTACCTCAGTTACA-AATAAA, SEQ ID NO. 18 (CCTCTTACCTCAGTTACAAATAAA; all phosphorodiamidate morpholino (PMO))
HeLa pLuc705 cells; PMO oligomer 1 μM, PS-dT8[3+] 2 μM, relative to PMO oligomer 21, FIG. 18, listed as 24
  luciferase activity upon PS-dT8[3+] (dTtaPS)-assisted internalization of PMO oligomers: did not significantly decrease; also recorded: did not significantly affect

## PNA oligomer 8: commercial PNA, F1-GTGGCCGTTTACGTCGCC-AAAAAA-NH2, SEQ ID NO. 2 (GTGGCCGTTTACGTCGCCAAAAAA; PNA, F1 label, C-amide, chemistry not fully specified)
[1]
  PS-dT8[3+] (dTtaPS)-mediated cellular internalization of fluoresceinated PNA oligomers: efficiently internalized

## PNA oligomer 9: commercial PNA, F1-CCTCTTACCTCAGTTACA-NH2, SEQ ID NO. 3 (all peptide nucleic acid (PNA), 5' {F1}; PNA with C-terminal amide, further chemistry not fully specified)
[1]
  PS-dT8[3+] (dTtaPS)-mediated cellular internalization of fluoresceinated PNA oligomers: not significantly internalized

## PNA oligomer 11: commercial PNA, negative control, H-GTGGCCGTTTACGTCGCC-AAAAAA-NH2, SEQ ID NO. 5 (GTGGCCGTTTACGTCGCCAAAAAA; all peptide nucleic acid (PNA); PNA with N-terminal H and C-terminal amide, further chemistry not fully specified)
HeLa pLuc705 cells; PS-dT8[3+] 2 μM, listed as 11
  luciferase activity (splice correction) upon PS-dT8[3+] (dTtaPS)-assisted delivery of PNA oligomers: failed, as expected for a negative control, to restore luciferase activity

## PNA oligomer 12: commercial PNA, H-CCTCTTACCTCAGTTACA-NH2, SEQ ID NO. 6 (all peptide nucleic acid (PNA); PNA with N-terminal H and C-terminal amide, further chemistry not fully specified)
HeLa pLuc705 cells; PS-dT8[3+] 2 μM
  luciferase activity (splice correction) upon PS-dT8[3+] (dTtaPS)-assisted delivery of PNA oligomers: did not restore luciferase activity

## PNA oligomer 15: commercial PNA, H-CCTCTTACCTCAGTTACA-TTTTTT-NH2, SEQ ID NO. 9 (CCTCTTACCTCAGTTACATTTTTT; all peptide nucleic acid (PNA); PNA with N-terminal H and C-terminal amide, further chemistry not fully specified)
HeLa pLuc705 cells; listed as 15
  luciferase activity / internalization upon PS-dA8[3+] (dAtaPS)-mediated delivery of PNA oligomers: about half the level of luciferase activity
HeLa pLuc705 cells; PS-dT8[3+] 2 μM, listed as 15
  luciferase activity (splice correction) upon PS-dT8[3+] (dTtaPS)-assisted delivery of PNA oligomers: did not result in significant production of luciferase activity; also recorded: did not lead to the production of luciferase activity

## PNA oligomer 16: commercial PNA, H-CCTCTTACCTCAGTTACA-CCCCCC-NH2, SEQ ID NO. 10 (CCTCTTACCTCAGTTACACCCCCC; all peptide nucleic acid (PNA), 3' {NH2}; further chemistry not fully specified)
HeLa pLuc705 cells; listed as 16
  luciferase activity / internalization upon PS-dA8[3+] (dAtaPS)-mediated delivery of PNA oligomers: failed to recognize and internalize
HeLa pLuc705 cells; PS-dT8[3+] 2 μM, listed as 16
  luciferase activity (splice correction) upon PS-dT8[3+] (dTtaPS)-assisted delivery of PNA oligomers: did not result in significant production of luciferase activity; also recorded: did not lead to the production of luciferase activity

## PNA oligomer 17: commercial PNA, H-AAAAAA-CCTCTTACCTCAGTTACA-NH2, SEQ ID NO. 11 (AAAAAACCTCTTACCTCAGTTACA; all peptide nucleic acid (PNA); PNA with N-terminal H and C-terminal amide, further chemistry not fully specified)
HeLa pLuc705 cells; listed as 17
  luciferase activity / internalization upon PS-dA8[3+] (dAtaPS)-mediated delivery of PNA oligomers: failed to recognize and internalize
HeLa pLuc705 cells; PS-dT8[3+] 2 μM
  luciferase activity (splice correction) upon PS-dT8[3+] (dTtaPS)-assisted delivery of PNA oligomers: did not significantly affect

From patent publication US10087465B2, “Trans-acting elements for intracellular delivery of nucleic acid sequences” (The United States of America, as Represented by the …, priority 2014, dated 2018)
